# Results reported in US5045537A, “Hydrophilic renin inhibitors, their preparation and use” (Sandoz Ltd., priority 1987, dated 1991).
# Experiments:
# human plasma renin = biological target: T1, human plasma renin (Homo sapiens, UniProt P00797); assay: Antibody-trapping method of Poulsen and Jorgensen, human plasma renin activity; format: biochemical; conditions: antibody trapping test
# T1 construct: human plasma renin activity; from tissue; host or cells: human plasma
# T1 sequence (P00797 67-406): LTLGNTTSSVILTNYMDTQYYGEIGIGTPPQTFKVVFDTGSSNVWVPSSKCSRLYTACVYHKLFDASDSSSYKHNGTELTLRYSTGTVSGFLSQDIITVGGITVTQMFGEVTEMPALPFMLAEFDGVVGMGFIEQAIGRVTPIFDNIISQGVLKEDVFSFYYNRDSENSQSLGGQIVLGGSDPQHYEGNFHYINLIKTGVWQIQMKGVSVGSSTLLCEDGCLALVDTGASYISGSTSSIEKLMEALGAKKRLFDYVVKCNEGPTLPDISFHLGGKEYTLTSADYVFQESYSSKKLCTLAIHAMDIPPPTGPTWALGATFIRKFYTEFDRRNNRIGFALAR
# From the text: In the antibody-trapping method of K. Poulsen and J. Jorgensen (J. Clin. Endocrin. Metab. 39, [1974] 816-825), they inhibit human plasma renin activity at a concentration of 10^-5 M to 10^-11 M.
# FeLV = conditions: 30 mg treatment over 14 days; cited from earlier work
SMILES,IC50 (human plasma renin) [nM],highest inhibiting concentration (human plasma renin) [nM/l],lowest inhibiting concentration (human plasma renin),cure (FeLV),reduction of FeLV-titres by a factor (FeLV)
"CCCC[C@H](NC(=O)[C@H](Cc1cccs1)NC(=O)COCCOCCOCCOC)C(=O)N[C@@H](CC1CCCCC1)[C@@H](O)CC(=O)N[C@@H](CC(C)C)C(=O)NCc1ccccn1 [Example 46, 3EG-Thala-Nle-Chatin-Leu-α-Pic]",1.5,15,"0,15 nM/l",,
Cc1cn([C@H]2C[C@H](N=[N+]=[N-])[C@@H](CO)O2)c(=O)[nH]c1=O [3'-azido-3'-deoxy-thymidine],,,,no cure was achieved,10
